Measurements from patent US9249161B2, “Bromodomain inhibitors and uses thereof” (Constellation Pharmaceuticals, Inc., priority 2010, dated 2016).

target: T1, BRD4(BD1) (Homo sapiens, UniProt O60885); experiment: BRD4 Alphalisa binding assay; details: not given
T1 construct: His; made in house
Experimental: IC50 Measurements for Inhibitors Using BRD4 Alphalisa Binding Assay
His/[…] epitope tagged BRD4 BD142-168 was cloned, expressed and purified to homogeneity. BRD4 binding and inhibition was assessed by monitoring the engagement of biotinylated H4-tetraacetyl peptide (Millipore #12-379) with the target using the AlphaLisa technology (Perkin-Elmer). Specifically, in a 384 well ProxiPlate BRD4(BD1) (30 nM final) was combined with peptide (200 nM final) in 40 mM HEPES (pH 7.0), 40 mM NaCl, 1 mM DTT, 0.01% (w/v) BSA, and 0.008% (w/v) Brij-35 either in the presence of DMSO (final 1.2% DMSO) or compound dilution series in DMSO. After 20 minute incubation at room temperature Alpha streptavidin donor beads and AlphaLisa anti-Flag acceptor beads were added to a final concentration of 10 ug/mL each. After three hours equilibration plates were read on an Envision instrument and IC50s calculated using a four parameter non-linear curve fit.

Row | SMILES | IC50 [nM]
1 | Cc1sc2c(c1C)C(c1ccc(Cl)cc1)=NC1(CC1)c1nnc(C)n1-2 [Compound 214, 4′-(4-Chlorophenyl)-2′,3′,9′-trimethylspiro[cyclopropane-1,6′-thieno[3,2-f][1,2,4]triazolo[4,3-a][1,4]diazepine]] | < 500

same assay, conditions: BRD4(BD1) 30 nM, biotinylated H4-tetraacetyl peptide 200 nM; read-out: BRD4 Alphascreen IC50

Row | SMILES | IC50 [nM]
2 | CCNC(=O)[C@@H]1C[C@]12N=C(c1ccc(Cl)cc1)c1c(sc(C)c1C)-n1c(C)nnc12 [Compound 204, (1S,2R)-4′-(4-chlorophenyl)-N-ethyl-2′,3′,9′-trimethylspiro[cyclopropane-1,6′-thieno[3,2-f][1,2,4]triazolo[4,3-a][1,4]diazepine]-2-carboxamide] | > 1000
3 | Cc1sc2c(c1C)C(c1ccc(Cl)cc1)=N[C@]1(C[C@H]1C)c1n[nH]c(=O)n1-2 [Compound 222, (1S,2R)-4′-(4-chlorophenyl)-2,2′,3′-trimethylspiro[cyclopropane-1,6′-thieno[3,2-f][1,2,4]triazolo[4,3-a][1,4]diazepin]-9′(8′H)-one 2,2,2-trifluoroacetic acid] | > 1000
4 | Cc1sc2c(c1C)C(c1ccc(Cl)cc1)=NC1(CC1C)c1nnc(C)n1-2 (racemic) [Compound 215, 4′-(4-chlorophenyl)-2,2′,3′,9′-tetramethylspiro[cyclopropane-1,6′-thieno[3,2-f][1,2,4]triazolo[4,3-a][1,4]diazepine]] | < 500
5 | Cc1sc2c(c1C)C(c1ccc(Cl)cc1)=N[C@@]1(C[C@@H]1C)C(=O)N2 [Compound 218, (1R,2S)-5′-(4-chlorophenyl)-2,6′,7′-trimethylspiro[cyclopropane-1,3′-thieno[2,3-e][1,4]diazepin]-2′(1′H)-one] | > 1000
6 | Cc1sc2c(c1C)C(c1ccc(Cl)cc1)=N[C@]1(C[C@H]1C)c1nnc(C)n1-2 [Compound 220, (1S,2R)-4′-(4-chlorophenyl)-2,2′,3′,9′-tetramethyl-spiro[cyclopropane-1,6′-thieno[3,2-f][1,2,4]triazolo[4,3-a][1,4]diazepine]] | < 500
7 | CC(=O)NC[C@@H]1C[C@]12N=C(c1ccc(Cl)cc1)c1c(sc(C)c1C)-n1c(C)nnc12 [Compound 207, N-(((1S,2S)-4′-(4-Chlorophenyl)-2′,3′,9′-trimethylspiro[cyclopropane-1,6′-thieno[3,2-f][1,2,4]triazolo[4,3-a][1,4]diazepin]-2-yl)methyl)acetamide] | < 500
8 | Cc1nnc2n1-c1ccccc1C(c1ccc(Cl)cc1)=NC21CC1 [Compound 216, 6-(4-chlorophenyl)-1-methylspiro[benzo[f][1,2,4]triazolo[4,3-a][1,4]diazepine-4,1′-cyclopropane]] | < 500
9 | Cc1noc2c1-c1cn(C)nc1C(c1ccc(Cl)cc1)=NC2 [Compound 265, 6-(4-chlorophenyl)-1,8-dimethyl-4,8-dihydroisoxazolo[5,4-c]pyrazolo[4,3-e]azepine] | > 1000
10 | Cc1sc2c(c1C)C(c1ccc(Cl)cc1)=N[C@]1(C[C@H]1CO)c1nnc(C)n1-2 [Compound 203, ((1S,2R)-4′-(4-chlorophenyl)-2′,3′,9′-trimethylspiro[cyclopropane-1,6′-thieno[3,2-f][1,2,4]triazolo[4,3-a][1,4]diazepin]-2-yl)methanol] | < 500
11 | Cc1nsc2c1C(c1ccc(Cl)cc1)=NC1(CC1)c1nnc(C)n1-2 [Compound 213, 4′-(4-chlorophenyl)-3′,9′-dimethylspiro[cyclopropane-1,6′-isothiazolo[4,5-f][1,2,4]triazolo[4,3-a][1,4]diazepine]] | > 1000
12 | Cc1sc2c(c1C)C(c1ccc(Cl)cc1)=N[C@@]1(C[C@@H]1CO)c1nnc(C)n1-2 [Compound 210, ((1R,2S)-4′-(4-Chlorophenyl)-2′,3′,9′-trimethylspiro[cyclo-propane-1,6′-thieno[3,2-f][1,2,4]triazolo[4,3-a][1,4]diazepin]-2-yl)methanol] | < 500
13 | CCNC(=O)[C@H]1C[C@@]12N=C(c1ccc(Cl)cc1)c1c(sc(C)c1C)-n1c(C)nnc12 [Compound 211, (1R,2S)-4′-(4-chlorophenyl)-N-ethyl-2′,3′,9′-trimethylspiro[cyclopropane-1,6′-thieno[3,2-f][1,2,4]triazolo[4,3-a][1,4]diazepine]-2-carboxamide] | > 1000
14 | CCNC[C@@H]1C[C@]12N=C(c1ccc(Cl)cc1)c1c(sc(C)c1C)-n1c(C)nnc12 [Compound 208, N-(((1S,2S)-4′-(4-Chlorophenyl)-2′,3′,9′-trimethylspiro[cyclopropane-1,6′-thieno[3,2-f][1,2,4]triazolo[4,3-a][1,4]diazepin]-2-yl)methyl)ethanamine] | < 500
15 | Cc1noc2c1-c1ccc(-c3ccc(N)nc3)cc1C(c1ccc(F)cc1)=NC21CC1 [Compound 251, 5-(6-(4-Fluorophenyl)-1-methylspiro[benzo[c]isoxazolo[4,5-e]azepine-4,1′-cyclopropan]-8-yl)pyridin-2-amine] | < 500
16 | Cc1sc2c(c1C)C(c1ccc(Cl)cc1)=NC1(COC1)c1nnc(C)n1-2 [Compound 226, 4′-(4-Chlorophenyl)-2′,3′,9′-trimethylspiro[oxetane-3,6′-thieno[3,2-f][1,2,4]triazolo[4,3-a][1,4]diazepine]] | < 500
17 | COC[C@@H]1C[C@]12N=C(c1ccc(Cl)cc1)c1c(sc(C)c1C)-n1c(C)nnc12 [Compound 202, (1S,2R)-4′-(4-chlorophenyl)-2-(methoxymethyl)-2′,3′,9′-trimethylspiro[cyclopropane-1,6′-thieno[3,2-f][1,2,4]triazolo[4,3-a][1,4]diazepine]] | < 500
18 | CCNC(=O)[C@@H]1C[C@@]12N=C(c1ccc(Cl)cc1)c1c(sc(C)c1C)-n1c(C)nnc12 [Compound 212, (1R,2R)-4′-(4-Chlorophenyl)-N-ethyl-2′,3′,9′-trimethylspiro-[cyclopropane-1,6′-thieno[3,2-f][1,2,4]triazolo[4,3-a][1,4]diazepine]-2-carboxamide] | > 1000
19 | COC[C@H]1C[C@@]12N=C(c1ccc(Cl)cc1)c1c(sc(C)c1C)-n1c(C)nnc12 [Compound 209, (1R,2S)-4′-(4-chlorophenyl)-2-(methoxymethyl)-2′,3′,9′-trimethylspiro[cyclopropane-1,6′-thieno[3,2-f][1,2,4]triazolo[4,3-a][1,4]diazepine]] | < 500
20 | Cc1noc2c1-c1ccc(Cl)cc1C(c1ccc(F)cc1)=NC21CC1 [Compound 250, 8-Chloro-6-(4-fluorophenyl)-1-methylspiro[benzo[c]isoxazolo[4,5-e]azepine-4,1′-cyclopropane]] | > 1000
21 | Cc1sc2c(c1C)C(c1ccc(Cl)cc1)=NC1(CC1)c1nncn1-2 [Compound 217, 4′-(4-Chlorophenyl)-2′,3′-dimethylspiro[cyclopropane-1,6′-thieno[3,2-f][1,2,4]triazolo[4,3-a][1,4]diazepine]] | > 1000
22 | Cc1sc2c(c1C)C(c1ccc(Cl)cc1)=NC1(CNC1)c1nnc(C)n1-2 [Compound 224, 4′-(4-chlorophenyl)-2′,3′,9′-trimethylspiro[azetidine-3,6′-thieno[3,2-f][1,2,4]triazolo[4,3-a][1,4]diazepine]] | > 1000
23 | Cc1sc2c(c1C)C(c1ccc(Cl)cc1)=N[C@@]1(C[C@@H]1C)c1nnc(C)n1-2 [Compound 219, (1R,2S)-4′-(4-chlorophenyl)-2,2′,3′,9′-tetramethylspiro-[cyclopropane-1,6′-thieno[3,2-f][1,2,4]triazolo[4,3-a][1,4]diazepine]] | < 500
24 | Cc1sc2c(c1C)C(c1ccc(Cl)cc1)=N[C@]1(C[C@H]1CN)c1nnc(C)n1-2 [Compound 206, ((1S,2S)-4′-(4-Chlorophenyl)-2′,3′,9′-trimethylspiro[cyclo-propane-1,6′-thieno[3,2-f][1,2,4]triazolo[4,3-a][1,4]diazepin]-2-yl)methanamine] | < 500
25 | Cc1sc2c(c1C)C(c1ccc(N)cc1)=N[C@]1(C[C@H]1C)c1nnc(C)n1-2 [Compound 221, 4-((1S,2R)-2,2′,3′,9′-tetramethylspiro[cyclopropane-1,6′-thieno[3,2-f][1,2,4]triazolo[4,3-a][1,4]diazepin]-4′-yl)aniline] | < 500
26 | Cc1sc2c(c1C)C(c1ccc(Cl)cc1)=N[C@]1(C[C@H]1C(N)=O)c1nnc(C)n1-2 [Compound 205, (1S,2R)-4′-(4-Chlorophenyl)-2′,3′,9′-trimethylspiro[cyclo-propane-1,6′-thieno[3,2-f][1,2,4]triazolo[4,3-a][1,4]diazepine]-2-carboxamide] | 500 to 1000
27 | Cc1sc2c(c1C)C(c1ccc(Cl)cc1)=NC1(CCC1)c1nnc(C)n1-2 [Compound 223, 4′-(4-chlorophenyl)-2′,3′,9′-trimethylspiro[cyclobutane-1,6′-thieno[3,2-f][1,2,4]triazolo[4,3-a][1,4]diazepine]] | < 500
